The values below come from publication PMC9785280, “Synthesis, Antiproliferative Evaluation and QSAR Analysis of Novel Halogen- and Amidino-Substituted Benzothiazoles and Benzimidazoles” (International Journal of Molecular Sciences, 2022).

The structures appear in SMILES notation.

The test system of data set [1] is MDCK1 (Madin–Darby canine kidney) cells. The experiment in a line: MTT antiproliferative assay, non-tumor MDCK1 cells. In kind it is cell-based. Particulars: Canis lupus familiaris, MDCK1, 72 h, mean ± SD of three independent experiments, normal cells. As for the experimental part: (§1) The growth inhibition activity was assessed according to the slightly modified procedure performed at the National Cancer Institute, Developmental Therapeutics Program.
(§2) Examined compounds were dissolved in DMSO (1 × 10^−2 M). The experiments were carried out on seven human tumor cell lines and two normal cell lines. The following cell lines were used: HeLa (human cervical adenocarcinoma; purchased from ATCC), CaCo-2 (human colorectal adenocarcinoma), HuT78 (T-cell lymphoma), THP-1 (acute monocytic leukemia), SW620 (colorectal adenocarcinoma, metastatic), MDA-MB-231 (human breast adenocarcinoma), HL60 (promyelocytic leukemia cell line), foreskin fibroblast cells (BJ) and MDCK1 (Madine–Darby canine kidney fibroblast like cells). MDCK1 cells were used between 24 and 26 passages.
(§3) Adherent cells were cultured in the Dulbecco’s modified Eagle medium—DMEM (Gibco, EU) supplemented with 10 % heat-inactivated fetal bovine serum (FBS, Gibco, EU), 2 mM glutamine, and 100 U/0.1 mg penicillin/streptomycin. Cells on suspension were cultured in RPMI 1640 (Gibco, EU) medium supplemented with 10 % FBS (Gibco, EU), 2 mM glutamine, 1 mM sodium pyruvate, 10 mM HEPES. Cells were grown in humidified atmosphere under the conditions of 37 °C/5% of CO2 gas in the CO2 incubator (IGO 150 CELLlife^TM, JOUAN, Thermo Fisher Scientific, Waltham, MA, USA). A erythrosin B (Sigma-Aldrich, St. Louis, MO, USA) dye exclusion method was used to assess cell viability before plating.
(§4) Adherent cells (HeLa, CaCo-2, MCF-7 and MDCK-1) were plated in 96-well flat bottom plates (Greiner, Frickenhausen, Austria) at a concentration of 2 × 10^4 cells/mL. Suspension cells (THP-1 and HuT78) were plated in 96-well microtiter plates (Sarstead, Newton, USA) at a concentration of 1 × 10^5 cells/mL. Twenty-four hours later, cells were treated with test agents in […] 10-fold dilutions ([…] to 10^−4 M) and incubated for further 72 h. Working dilutions were freshly prepared on the day of testing. The solvent was also tested for eventual inhibitory activity by adjusting its concentration to be the same as in working concentrations. After 72 h of incubation, the cell growth rate was evaluated by performing the MTT assay, which detects dehydrogenase activity in viable cells. For this purpose, upon completion of the incubation period, growth medium was discarded and 50 μL of MTT was added to each well at a concentration of 5 mg/mL. After four hours of incubation at 37 °C, water insoluble MTT-formazan crystals were dissolved in 150 μL of dimethyl-sulfoxide (DMSO) for adherent cells, and in 10 % SDS with 0.01 M/L HCl for cells grown in suspension. The absorbance (OD, optical density) was measured on a microplate reader (iMark, BIO RAD, Hercules, CA, USA) at 595 nm.
(§5) Percent of life cells was calculated as follows: % = OD (sample)–OD (background)/OD (control)–OD (background) × 100.
(§6) Optical density (OD) of background for adherent cells is the OD of MTT solution and DMSO; OD (background) for suspension cells is OD of the culture medium with MTT and 10% SDS with 0.01 M/L HCl; OD (control) is the OD of the cells growth without tested compounds.
(§7) Calculation of GI50 value curves and QC analysis is performed by using the Excel tools and GraphPadPrism software (La Jolla, CA), v. 5.03. Briefly, individual concentration effect curves are generated by plotting the logarithm of the concentration of tested compounds(X) vs. corresponding percent inhibition values (Y) using least squares fit. The best fit GI50 values are calculated using Log (inhibitor) versus normalized response—Variable slope equation, where Y Ľ 100/(1 ţ 10 ((LogIC50 _ X) * HillSlope)). QC criteria parameters (Z0, S:B, R2, HillSlope) were checked for every GI50 curve.
Background: Tetrazolium dyes change colour on reduction, which living cells bring about.

The test system of data set [2] is human fibroblasts (BJ). The experiment in a line: MTT antiproliferative assay, normal BJ fibroblasts. Type of data set: cell-based. The following applies: Homo sapiens, Fibroblast, 72 h, MTT, mean ± SD of three independent experiments; normal cells. As for the experimental part: as §1, §2, §3, §4, §5, §6, §7
Data set [3] concerns HeLa (cervical adenocarcinoma) cells. The experiment in a line: MTT antiproliferative assay, HeLa. In kind it is cell-based. The following applies: Homo sapiens, 72 h, mean ± SD of three independent experiments. The protocol:
as §1, §2, §3, §4, §5, §6, §7

The test system of data set [4] is CaCo-2 (colon adenocarcinoma) cells. The experiment in a line: MTT antiproliferative assay, CaCo-2. In kind it is cell-based, human. Particulars: for IC50: Homo sapiens, Caco-2, 72 h, MTT, mean ± SD of three independent experiments. As for the experimental part: as §1, §2, §3, §4, §5, §6
Calculation of GI50 value curves and QC analysis is performed by using the Excel tools and GraphPadPrism software (La Jolla, CA), v. 5.03. Briefly, individual concentration effect curves are generated by plotting the logarithm of the concentration of tested compounds(X) vs. corresponding percent inhibition values (Y) using least squares fit. […] QC criteria parameters (Z0, S:B, R2, HillSlope) were checked for every GI50 curve.

Data set [5] concerns HuT78 (T-cell lymphoma) cells. The experiment in a line: MTT antiproliferative assay, HuT78. The following applies: for IC50: Homo sapiens, HuT78, 72 h, 72 h, MTT, mean ± SD of three independent experiments; for SI (BJ) HuT78: SI = IC50 BJ / IC50 HuT78; for SI (MDCK) HuT78: SI = IC50 MDCK1 / IC50 HuT78. In kind it is cell-based, human. The protocol: as §1, §2, §3, §4, §5, §6, §7

Take `Fc1cc(-c2nc3ccc(C4=NCCN4)cc3[nH]2)ccc1OCCN1CCOCC1` [48b]: the IC50 in data set [1], in data set [2], in data set [3], in data set [4] and in data set [5] was more than 100 µM throughout.

With `c1cc(-c2nc3ccc(C4=NCCN4)cc3[nH]2)ccc1OCc1cn(CCN2CCOCC2)nn1` [46a], the IC50 in data set [1] was more than 100 µM; in data set [2], more than 100 µM; in data set [3], more than 100 µM; in data set [4], more than 100 µM; in data set [5], 63 ± 15.1 µM. The “SI (BJ) HuT78” value in data set [5] is 1.59. Also, in data set [5], the “SI (MDCK) HuT78” value is recorded as 1.59.

For `CCN(CC)CCOc1ccc(-c2nc3ccc(C4=NCCN4)cc3[nH]2)cc1F` [49b], the IC50 was 82.9 ± 6.6 µM in data set [1]; 64.8 ± 9.2 µM in data set [2]; more than 100 µM in data set [3]; more than 100 µM in data set [4]; more than 100 µM in data set [5].

`COc1cc(-c2nc3ccc(C4=NCCN4)cc3[nH]2)ccc1OCc1ccccn1` [43c]: the IC50 in data set [1] is 63.4 ± 8.9 µM; in data set [2], 30.9 ± 8.7 µM; in data set [3], more than 100 µM; in data set [4], more than 100 µM; in data set [5] it was 17.7 ± 6.1 µM. For the same molecule, the “SI (BJ) HuT78” value in data set [5] was determined as 1.75. Further, the “SI (MDCK) HuT78” value in data set [5] stood at 3.58.

With `O=C(COc1ccc(-c2nc3ccc(C4=NCCN4)cc3[nH]2)cc1F)N1CCOCC1` [47b], the IC50 in data set [1], in data set [2], in data set [3], in data set [4] and in data set [5] was more than 100 µM throughout.

As to `O=c1[nH]cc(F)c(=O)[nH]1` [5-FU, 5-Fluorouracil, reference compound], the half-inhibitory concentration (IC50) in data set [1] was 55 ± 8.7 µM; in data set [2] it was 74 ± 3.1 µM; in data set [3], 8.2 ± 1.9 µM; in data set [5], more than 100 µM. The “antiproliferative effect on HuT78 cells (in words)” value in data set [5] is “did not exhibit antiproliferative effect”.

In the case of `c1cc(-c2nc3ccc(C4=NCCN4)cc3[nH]2)ccc1OCCN1CCOCC1` [48a], the IC50 in data set [1], in data set [2], in data set [3], in data set [4] and in data set [5] was more than 100 µM in each case.

For the molecule `COc1cc(-c2nc3ccc(C4=NCCCN4)cc3s2)ccc1OCc1cn(Cc2ccccc2)nn1` [41c], the IC50 in data set [1], in data set [2], in data set [3], in data set [4] and in data set [5] was more than 100 µM in each case.

Turning to `Clc1ccc2nc(-c3ccc(OCc4ccccn4)cc3)sc2c1` [18a], the IC50 was 17.6 ± 5.7 µM in data set [1]; more than 100 µM in data set [2]; 42.4 ± 7.5 µM in data set [3]; more than 100 µM in data set [4]; 13.2 ± 1.2 µM in data set [5]. Further, the “SI (BJ) HuT78” value in data set [5] came out at 3.2.

On to `COc1cc(-c2nc3ccc(C4=NCCN4)cc3[nH]2)ccc1OCc1c[nH]nn1` [44c], for which the IC50 in data set [1], in data set [2], in data set [3], in data set [4] and in data set [5] was more than 100 µM throughout.

Take `Fc1cc(-c2nc3ccc(C4=NCCCN4)cc3s2)ccc1OCc1c[nH]nn1` [40b]: the IC50 in data set [1] was more than 100 µM; in data set [2], more than 100 µM; in data set [3], more than 100 µM; in data set [4], more than 100 µM; in data set [5], 37.3 ± 12.8 µM. In addition, the “SI (BJ) HuT78” value in data set [5] is on record as 2.68. Also, the “SI (MDCK) HuT78” value in data set [5] is listed as 2.68.

As to `Fc1cc(-c2nc3ccc(C4=NCCN4)cc3[nH]2)ccc1OCc1c[nH]nn1` [44b], the concentration for half-maximal inhibition (IC50) is more than 100 µM in data set [1]; 45.1 ± 20.9 µM in data set [2]; more than 100 µM in data set [3]; more than 100 µM in data set [4]; 65.6 ± 17.3 µM in data set [5]. In addition, in data set [5], the “SI (MDCK) HuT78” value was 1.52.

Consider `c1cc(-c2nc3ccc(C4=NCCCN4)cc3s2)ccc1OCc1c[nH]nn1` [40a], for which the half-inhibitory concentration (IC50) in data set [1] is 59.4 ± 18.8 µM; in data set [2] it was more than 100 µM; in data set [3] it was more than 100 µM; in data set [4], more than 100 µM; in data set [5], more than 100 µM.

Regarding `COc1cc(-c2nc3ccc(C4=NCCN4)cc3[nH]2)ccc1OCCN1CCOCC1` [48c], the IC50 was more than 100 µM in data set [1]; more than 100 µM in data set [2]; more than 100 µM in data set [3]; more than 100 µM in data set [4]; 69.6 ± 25.9 µM in data set [5]. Besides, the “SI (BJ) HuT78” value in data set [5] stood at 1.44. The “SI (MDCK) HuT78” value in data set [5] is given as 1.44.

Take `Fc1cc(-c2nc3ccc(C4=NCCN4)cc3[nH]2)ccc1OCc1ccccn1` [43b]: the IC50 in data set [1] was more than 100 µM; in data set [2] it was more than 100 µM; in data set [3], more than 100 µM; in data set [4], more than 100 µM; in data set [5], 43.3 ± 4.4 µM. In data set [5], the “SI (BJ) HuT78” value was found to be 2.3. In data set [5], the “SI (MDCK) HuT78” value was 2.3.

`COc1cc(-c2nc3ccc(C4=NCCCN4)cc3s2)ccc1OCc1c[nH]nn1` [40c]: the IC50 in data set [1], in data set [2], in data set [3], in data set [4] and in data set [5] was more than 100 µM throughout.

On to `CCN(CC)CCOc1ccc(-c2nc3ccc(C4=NCCN4)cc3[nH]2)cc1` [49a], for which the IC50 in data set [1] was more than 100 µM; in data set [2], 80.4 ± 9.9 µM; in data set [3], more than 100 µM; in data set [4] it was more than 100 µM; in data set [5], more than 100 µM.

Regarding `c1ccc(Cn2cc(COc3ccc(-c4nc5ccc(C6=NCCCN6)cc5s4)cc3)nn2)cc1` [41a], the IC50 was found to be 58.2 ± 17.3 µM in data set [1]; 27.3 ± 6 µM in data set [2]; 25.8 ± 0.8 µM in data set [3]; 29.2 ± 4.2 µM in data set [4]; 4.1 ± 3.6 µM in data set [5]. Also, the “SI (MDCK) CaCo-2” value in data set [4] (SI = IC50 MDCK1 / IC50 CaCo-2) is 1.99. Moreover, in data set [5], the “SI (BJ) HuT78” value is given as 6.65. Also, in data set [5], the “SI (MDCK) HuT78” value came out at 14.19.

`c1cc(-c2nc3ccc(C4=NCCN4)cc3[nH]2)ccc1OCc1c[nH]nn1` [44a]: the IC50 is more than 100 µM in data set [1]; 73.3 ± 3.2 µM in data set [2]; more than 100 µM in data set [3]; more than 100 µM in data set [4]; 89.2 ± 20.6 µM in data set [5]. The “SI (MDCK) HuT78” value in data set [5] stood at 1.2.

For the molecule `CCN(CC)CCOc1ccc(-c2nc3ccc(C4=NCCN4)cc3[nH]2)cc1OC` [49c], the IC50 in data set [1], in data set [2], in data set [3], in data set [4] and in data set [5] was more than 100 µM throughout.

In the case of `O=C(COc1ccc(-c2nc3ccc(C4=NCCN4)cc3[nH]2)cc1)N1CCOCC1` [47a], the IC50 in data set [1], in data set [2], in data set [3], in data set [4] and in data set [5] was more than 100 µM throughout.

Broadly, the IC50 is the concentration that inhibits the measured activity by half. Lower therefore signals greater potency.
